The results in this text go back to ChEMBL document CHEMBL2021875, “Anthracyclinones from Micromonospora sp” (J Nat Prod, 2012).

Each structure is given as a SMILES string.

This experiment relates to HCT-8. The experiment can be described thus: Cytotoxicity against human HCT8 cells after 72 hrs by MTT assay. The class given is functional, cell-based. The conditions noted are these: HCT-8, 72 h. Background: Tetrazolium dyes change colour on reduction, which living cells bring about.
For orientation: IC50 means the concentration needed to halve the response being measured. A lower IC50 goes with greater potency in that assay. Compound `CCCc1ccc2c(c1)C(=O)c1cc3cccc(OC)c3cc1C2=O` gave an IC50 greater than 70 µM.

`COc1cccc2c1C(=O)c1c(O)c3c(c(O)c1C2=O)C[C@@](O)(C(=O)CO)C[C@@H]3O[C@H]1C[C@H](N)[C@H](O)[C@H](C)O1` [DOXORUBICIN]: the IC50 was determined as 0.1 µM.

Consider `CCC[C@@]1(O)C[C@H](O)c2c(O)c3c(c(O)c2[C@H]1C(=O)OC)C(=O)c1cccc(O)c1C3=O`, for which half-maximal inhibition (IC50) was put at 6.2 µM. Against the preceding compound, the IC50 is about 62-fold higher.

In turn, `CCC[C@@]1(O)CCC2=C(C1)C(=O)c1cc3cccc(OC)c3cc1C2=O` showed an IC50 greater than 70 µM.

Take `CCCc1ccc2c(O)c3c(c(O)c2c1)C(=O)c1cccc(O)c1C3=O`: it took 12.7 µM to reach half-maximal inhibition (IC50).
